Source: patent publication US11926613B2, “Kinase inhibitors for the treatment of central and peripheral nervous system disorders” (UNIVERSITY OF MIAMI, priority 2017, dated 2024)

Assays:
[1] = tested on: neurons from hippocampi of E18 rat embryos; assay: Neurite growth length (% NTL) in cultured E18 rat hippocampal neurons, 9-point dose response, 48 hours; type: cell-based; settings: Rattus norvegicus, Neuron, 48 h; for activity at 0.078 µM: 78 nM; for activity at 0.156 µM: 156 nM; for activity at 0.312 µM: 312 nM; for activity at 0.625 µM: 625 nM
Method in brief: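 Dissociated E18 rat hippocampal neurons at 1500 cells/well on PDL were exposed 48 h to 9 concentrations from 20 μM down to 0.078125 μM. After PFA fixation and βIII-tubulin/Hoechst staining, ArrayScan imaging traced neurites in at least 200–300 neurons per condition to give % NTL.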

Primary Neurons = assay: HCS neurite outgrowth assay (High Content Screening with Primary Neurons); type: cell-based; settings: Primary neuron

| Structure (SMILES) | activity at 0.078 µM [1] [%] | activity at 0.156 µM [1] [%] | activity at 0.312 µM [1] [%] | activity at 0.625 µM [1] [%] | activity at 1.25 µM [1] [%] | activity at 2.5 µM [1] [%] | activity at 5 µM [1] [%] | activity at 10 µM [1] [%] | activity at 20 µM [1] [%] | EC50 (Primary Neurons) [µM] |
| --- | --- | --- | --- | --- | --- | --- | --- | --- | --- | --- |
| COc1ccc(O)c(C(=O)c2ccc(C(=O)N[C@@H]3CNC[C@H]3NC(=O)c3ccnc(N)n3)cc2)c1F [Example A36, 2-amino-N-[(3R,4R)-4-[4-(2-fluoro-6-hydroxy-3-methoxybenzoyl)benzamido]pyrrolidin-3-yl]pyrimidine-4-carboxamide] | 116 | 126 | 131 | 149 | 239 | 358 | 516 | 480 | 470 | 1.83 |
| COc1ccc(O)c(C(=O)c2ccc(C(=O)N[C@@H]3CNC[C@H]3NC(=O)c3ccc(O)cc3)cc2)c1F [Example A37, N-[(3R,4R)-4-[4-(2-fluoro-6-hydroxy-3-methoxybenzoyl)benzamido]pyrrolidin-3-yl]-4-hydroxybenzamide] | 100 | 109 | 113 | 107 | 113 | 124 | 132 | 155 | 212 | > 20 |
| COc1ccc(O)c(C(=O)c2ccc(C(=O)N[C@@H]3CNC[C@H]3NC(=O)c3cccnc3)cc2)c1F [Example A38, N-[(3R,4R)-4-[4-(2-fluoro-6-hydroxy-3-methoxybenzoyl)benzamido]pyrrolidin-3-yl]pyridine-3-carboxamide] | 108 | 102 | 103 | 96.6 | 100 | 100 | 106 | 100 | 87.7 | 3.15 |
| COc1ccc(O)c(C(=O)c2ccc(C(=O)N[C@@H]3CNC[C@H]3NC(=O)c3ccc(O)nc3)cc2)c1F [Example A39, N-[(3R,4R)-4-[4-(2-fluoro-6-hydroxy-3-methoxybenzoyl)benzamido]pyrrolidin-3-yl]-6-hydroxypyridine-3-carboxamide] | 96.3 | 93 | 85.5 | 80.5 | 83 | 87.3 | 98 | 98.9 | 101 | 3.76 |
| COc1ccc(O)c(C(=O)c2ccc(C(=O)N[C@@H]3CNC[C@H]3NC(=O)c3ccnc(O)c3)cc2)c1F [Example A40, N-[(3R,4R)-4-[4-(2-fluoro-6-hydroxy-3-methoxybenzoyl)benzamido]pyrrolidin-3-yl]-2-hydroxypyridine-4-carboxamide] | 86.3 | 91.2 | 86.2 | 86.2 | 94.1 | 108 | 101 | 106 | 121 | 9.62 |
| COc1ccc(O)c(C(=O)c2ccc(C(=O)N[C@@H]3CNC[C@H]3NC(=O)c3ccncn3)cc2)c1F [Example A41, N-[(3R,4R)-4-[4-(2-fluoro-6-hydroxy-3-methoxybenzoyl)benzamido]pyrrolidin-3-yl]pyrimidine-4-carboxamide] | 91.3 | 88.5 | 86.2 | 87 | 95.9 | 102 | 124 | 152 | 190 | 11 |
| COc1ccc(O)c(C(=O)c2ccc(C(=O)N[C@@H]3CNC[C@H]3NC(=O)c3ccc4[nH]ncc4c3)cc2)c1F [Example A42, N-[(3R,4R)-4-[4-(2-fluoro-6-hydroxy-3-methoxybenzoyl)benzamido]pyrrolidin-3-yl]-1H-indazole-5-carboxamide] | 115 | 110 | 126 | 118 | 169 | 255 | 403 | 431 | 369 | 2.45 |
| COc1ccc(O)c(C(=O)c2ccc(C(=O)N[C@@H]3CNC[C@H]3NC(=O)c3cn[nH]c3)cc2)c1F [Example A43, N-[(3R,4R)-4-[4-(2-fluoro-6-hydroxy-3-methoxybenzoyl)benzamido]pyrrolidin-3-yl]-1H-pyrazole-4-carboxamide] | 118 | 118 | 115 | 114 | 124 | 136 | 144 | 155 | 173 | 3.11 |
| COc1ccc(O)c(C(O)c2ccc(C(=O)N[C@@H]3CNC[C@H]3NC(=O)c3ccnc(N)n3)cc2)c1F (stereo partly drawn) [Example A44, 2-amino-N-[(3R,4R)-4-{4-[(2-fluoro-6-hydroxy-3-methoxyphenyl)(hydroxy)methyl]benzamido}pyrrolidin-3-yl]pyrimidine-4-carboxamide] | 94 | 87.1 | 78.8 | 76.4 | 99.4 | 96.2 | 104 | 103 | 105 | 2.05 |
| COc1ccc(O)c(Cc2ccc(C(=O)N[C@@H]3CNC[C@H]3NC(=O)c3ccnc(N)n3)cc2)c1F [Example A45, 2-amino-N-[(3R,4R)-4-{4-[(2-fluoro-6-hydroxy-3-methoxyphenyl)methyl]benzamido}pyrrolidin-3-yl]pyrimidine-4-carboxamide] | 96.5 | 90.2 | 83.7 | 87 | 84.8 | 93.3 | 89.1 | 97.2 | 111 | > 20 |
| COc1ccc(O)c(C(=O)c2ccc(C(=O)N[C@@H]3CNC[C@H]3NC(=O)Cc3cccnc3)cc2)c1F [Example A46, 4-(2-fluoro-6-hydroxy-3-methoxybenzoyl)-N-[(3R,4R)-4-[2-(pyridin-3-yl)acetamido]pyrrolidin-3-yl]benzamide] | 95.6 | 95 | 90.8 | 77.5 | 93.1 | 86.8 | 88.1 | 100 | 90.2 | 1.65 |
| COc1ccc(O)c(C(=O)c2ccc(C(=O)N[C@@H]3CNC[C@H]3NC(=O)Cc3cn[nH]c3)cc2)c1F [Example A47, 4-(2-fluoro-6-hydroxy-3-methoxybenzoyl)-N-[(3R,4R)-4-[2-(1H-pyrazol-4-yl)acetamido]pyrrolidin-3-yl]benzamide] | 100 | 99.3 | 99.7 | 96.8 | 104 | 112 | 122 | 128 | 162 | 7.43 |
| COc1ccc(O)c(C(=O)c2ccc(C(=O)N[C@@H]3CNC[C@H]3NC(=O)c3ccnc4[nH]cnc34)cc2)c1F [Example A48, N-[(3R,4R)-4-[4-(2-fluoro-6-hydroxy-3-methoxybenzoyl)benzamido]pyrrolidin-3-yl]-3H-imidazo[4,5-b]pyridine-7-carboxamide] | 109 | 117 | 116 | 120 | 144 | 219 | 332 | 461 | 421 | 6.08 |
| O=C(N[C@@H]1CNC[C@H]1NC(=O)c1ccc2[nH]ncc2c1)c1ccc(C(=O)c2c(O)cccc2F)cc1 [Example A49, N-[(3R,4R)-4-[4-(2-fluoro-6-hydroxybenzoyl)benzamido]pyrrolidin-3-yl]-1H-indazole-5-carboxamide] | 107 | 99.5 | 101 | 112 | 139 | 200 | 298 | 322 | 207 | 2.46 |
| Nc1nccc(C(=O)N[C@@H]2CNC[C@H]2NC(=O)c2ccc(C(=O)c3c(O)cccc3F)cc2)n1 [Example A50, 2-amino-N-[(3R,4R)-4-[4-(2-fluoro-6-hydroxybenzoyl)benzamido]pyrrolidin-3-yl]pyrimidine-4-carboxamide] | 113 | 113 | 118 | 136 | 194 | 285 | 431 | 561 | 457 | 3.6 |
| O=C(N[C@@H]1CNC[C@H]1NC(=O)c1ccc(C(=O)c2c(O)cccc2F)cc1)c1ccncc1 [Example A51, N-[(3R,4R)-4-[4-(2-fluoro-6-hydroxybenzoyl)benzamido]pyrrolidin-3-yl]pyridine-4-carboxamide] | 129 | 129 | 135 | 158 | 191 | 260 | 362 | 506 | 421 | 4.9 |
